Laboratory results as given in US11807871B2, “Complex human gut microbiome cultured in an anaerobic human gut-on-a-chip” (President and Fellows of Harvard College, priority 2018, dated 2023).

tested on: primary human colon epithelial cells infected with EHEC; experiment: Colon chip EHEC infection, epithelial lesion analysis; format: cell-based; settings: metabolites added individually to a colon-chip
Protocol: Referring generally to FIGS. 18A-18C, microbiome metabolites recapitulate species-specific tolerance in Colon Chips. Human or mouse intestinal microbiome metabolites (e.g., isolated from specific strains of bacterial or fecal samples incubated in a bioreactor) were added to the intestinal channel of optically clear, human colon chips that are lined by primary human colon epithelial cells and directly opposed to a second parallel vascular microchannel in which HIMVECs are cultured. The two channels are separated by a thin, porous, ECM-coated membrane. Human intestinal epithelium was isolated from resections or endoscopic tissue biopsies. Endoscopic biopsies were collected from macroscopicallynormal (grossly unaffected) areas of the colon undergoing endoscopy for abdominal complaints. Organoids were grown from these tissue samples and seeded into the upper chamber of a two channel closed top microfluidic device. Human intestinal microvascular endothelial cells (HIMECs) were obtained from ScienCell (Cat #2900). The intestinal luminal channel medium was switched to 5% (vol vol-1) human (Hmm) or mouse (Mmm) gut microbiome metabolites isolated from PolyFermS bioreactors, diluted in phosphate-buffered saline (PBS) containing calcium and magnesium (final osmolarity=300 mOsm kg-1), filtered through a 0.2 μm filter (Corning), and stored at −80° C.
For example, on day 8 of a colon chip culture, the luminal culture medium is replaced with the same medium supplemented with human or murine microbiome metabolites (diluted 1:20 in a PBS-water based solution to 300 mOsm kg-1), while continuing to flow the same endothelial culture medium through the vascular channel. Perfusion is continued for 24 hours, followed by introduction of EHEC (1.7×105; serotype O157:H7) into the apical lumen in the same medium for 3 hours under static conditions to allow for bacterial cell attachment; medium flow is then re-established and continued for 24 additional hours.
Referring to colon chip infection, colon chips were cultured in the intestinal lumen channel of a chip in 5% (vol vol-1) human or mouse gut microbiome metabolites isolated from PolyFermS bioreactors, diluted in phosphate-buffered saline (PBS; final osmolarity=300 mOsm kg-1) or 24 hours. The following day, the intestinal channel was infected with 1.7×105. EHEC-GFP or EHEC A fliC (both generated from NR-3 E. coli/EDL931; serotype O157:H7), by adding the bacteria into the channel lumen in medium again with or without Hmm or Mmm. […]
For epithelial lesion analysis, one day post-infection, colon chips were washed with PBS and fixed with 4% paraformaldehyde in PBS for 2 hours. […] The area occupied by cells and the total area of the chip were measured using Fiji software.

Structure (SMILES)	epithelial injury during a EHEC infection of the chip
Cc1ccc(C(=O)O)cc1 [4-methyl benzoic acid]	enhance epithelial injury
CCCCCC(=O)O [hexanoic acid]	enhance epithelial injury
Cc1ccc(C(=O)O)cc1C [3,4-dimethylbenzoic acid]	enhance epithelial injury
CCCCCCC(=O)O [heptanoic acid]	enhance epithelial injury
